Patent EP0610519B1, “ANTI-HIV DRUG” (priority 1992, dated 1994)
Read-outs that look alike come from different tables or passages of the source.

Tests used:
[1] = test system: HIV (type IIIB); assay: inhibition of budding of HIV from infected H-9 cells (reverse transcriptase activity per unit culture medium as index); assay type: cell-based; details: H-9 cells infected with HIV (type IIIB), 15 minutes treatment, then 360 minutes culture
Protocol: (§1) Human lymphocyte-derived H-9 cells, infected with HIV (type IIIB), were cultured in an RPMI-1640 medium (product of Biocell Laboratories) containing wortmannin and 10% fetal bovine serum (FBS) at 37°C for 15 minutes in a CO2 incubator. The H-9 cells thus obtained were washed with an RPMI-1640 medium, and then cultured in another RPMI-1640 medium containing 10% FBS at 37°C for 360 minutes in a CO2 incubator. The reverse transcriptase activity per unit culture medium was used as an index to determine the inhibitory effect of wortmannin on the budding of HIV.
(§2) The same test as mentioned above was repeated using MS-444 instead of wortmannin.

[2] = rat, in vivo
[3] = test system: Human lymphocyte-derived H-9 cells; assay: host cell growth in the HIV budding test; details: concentration of 100 µM
Protocol: as §1, §2

SMILES	Budding of HIV (%) ([1]; 10 µM test compound)	Budding of HIV (%) ([1]; 100 µM test compound)	Budding of HIV (%) ([1]; 1000 µM test compound)	acute toxicity, mortality ([2]; ip, 100 mg/kg)	acute toxicity, mortality ([2]; po, 300 mg/kg)	Budding of HIV (%) ([1]; 0.1 µM test compound)	Budding of HIV (%) ([1]; 1.0 µM test compound)	Host cell growth [3]
Cc1occ2c1C(=O)c1c(O)ccc(O)c1C2 [MS-444]	95	82	20	no rats died	no rats died			
COC[C@H]1OC(=O)c2coc3c2[C@@]1(C)C1=C(C3=O)[C@@H]2CCC(=O)[C@@]2(C)C[C@H]1OC(C)=O [Wortmannin]	39					67	49	not influenced
